pIC50, pKi: −log10 of the molar value.

The record followed here is ChEMBL document CHEMBL1777738, “3-Cyano-6-(5-methyl-3-pyrazoloamino)pyridines: selective Aurora A kinase inhibitors” (Bioorg Med Chem Lett, 2010).

For one data set, the target named is T1, Aurora kinase A (Homo sapiens, UniProt O14965).
T1 sequence (O14965 whole entry): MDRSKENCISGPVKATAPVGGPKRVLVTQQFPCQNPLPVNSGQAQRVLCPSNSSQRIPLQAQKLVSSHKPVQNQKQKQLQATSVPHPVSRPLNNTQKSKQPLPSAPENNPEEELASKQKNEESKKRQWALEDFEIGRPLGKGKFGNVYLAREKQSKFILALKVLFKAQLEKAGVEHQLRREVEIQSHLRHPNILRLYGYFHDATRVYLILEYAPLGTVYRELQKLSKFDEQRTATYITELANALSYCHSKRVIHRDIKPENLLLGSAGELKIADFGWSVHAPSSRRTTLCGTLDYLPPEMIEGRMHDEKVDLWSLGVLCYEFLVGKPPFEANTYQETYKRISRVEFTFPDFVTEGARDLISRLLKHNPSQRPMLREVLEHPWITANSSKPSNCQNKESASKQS

Data set [1] can be described thus: Intrinsic clearance in human hepatic microsomes. The data set is classed as ADME, Liver, Microsome.
The target of the next data set is Aurora kinase B (Homo sapiens, UniProt Q96GD4). Briefly: Inhibition of aurora B.
Data set [2] in a line: Tmax in rat at 30 mg/kg, po. Format: ADME, organism-based. The arrangement: dose 30 mg/kg, route oral. Conditions: in vivo.
For data set [3], the target named is Proto-oncogene tyrosine-protein kinase Src (Homo sapiens, UniProt P12931). Description: Inhibition of c-SRC.
Another data set deals with Mus musculus. Briefly: Toxicity in human HCT116 cells xenografted mouse assessed as reduction in body weight at 30 mg/kg, po qd for 14 days. The data set is classed as organism-based, HCT-116. Details: dose 30 mg/kg, route oral. The note with it: in vivo, 336 h.
Data set [4] relates to HCT-116. Description: Antitumor activity against human HCT116 cells xenografted in mouse assessed as tumor growth inhibition at 30 mg/kg, po qd for 14 days. Format: functional. Conditions: HCT-116, 336 h.
The target in data set [5] is Tyrosine-protein kinase Yes (Homo sapiens, UniProt P07947). Briefly: Inhibition of Yes.
Data set [6] is described as follows: Drug level in rat serum at 30 mg/kg, po after 24 hrs. Format: ADME, organism-based. The arrangement: dose 30 mg/kg, route oral. The note with it: read-out: Drug uptake.
Data set [7] in a line: Half life in rat at 30 mg/kg, po. The data set is classed as ADME, organism-based. The arrangement: dose 30 mg/kg, route oral. The note with it: in vivo.
Data set [8] deals with Tyrosine-protein kinase Fyn (Homo sapiens, UniProt P06241). Briefly: Inhibition of Fyn.
Data set [9] can be described thus: Cmax in rat at 30 mg/kg, po. The arrangement: dose 30 mg/kg, route oral. The data set is classed as ADME, organism-based. The note with it: in vivo.
Data set [10] relates to HCT-116. Description: Antiproliferative activity against human HCT116 cells. Format: functional, cell-based.
The subject of data set [11] is HCT-116. Briefly: Antitumor activity against human HCT116 cells xenografted in mouse assessed as tumor growth inhibition at 100 mg/kg, ip qd for 14 days.
The subject of data set [12] is HCT-116. Description: Antitumor activity against human HCT116 cells xenografted in mouse assessed as tumor growth inhibition at 30 mg/kg, ip qd for 14 days. For orientation: Xenograft models place foreign cells or tissue in a host animal.

Proto-oncogene tyrosine-protein kinase Src, sequence (P12931 2-536 limits assumed): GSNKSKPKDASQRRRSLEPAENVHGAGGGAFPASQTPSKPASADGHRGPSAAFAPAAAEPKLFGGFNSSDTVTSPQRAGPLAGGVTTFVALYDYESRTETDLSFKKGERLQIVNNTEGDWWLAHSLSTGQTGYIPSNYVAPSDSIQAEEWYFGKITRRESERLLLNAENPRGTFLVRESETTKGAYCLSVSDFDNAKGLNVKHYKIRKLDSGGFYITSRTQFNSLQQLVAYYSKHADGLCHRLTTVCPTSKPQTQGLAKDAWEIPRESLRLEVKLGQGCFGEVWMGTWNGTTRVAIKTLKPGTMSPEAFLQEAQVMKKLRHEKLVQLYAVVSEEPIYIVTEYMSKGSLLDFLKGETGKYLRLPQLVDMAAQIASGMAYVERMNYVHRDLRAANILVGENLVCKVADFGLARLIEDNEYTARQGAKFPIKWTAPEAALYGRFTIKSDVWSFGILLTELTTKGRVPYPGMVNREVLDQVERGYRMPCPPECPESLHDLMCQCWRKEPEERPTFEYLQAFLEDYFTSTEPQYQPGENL
Aurora kinase B, sequence (Q96GD4 whole entry): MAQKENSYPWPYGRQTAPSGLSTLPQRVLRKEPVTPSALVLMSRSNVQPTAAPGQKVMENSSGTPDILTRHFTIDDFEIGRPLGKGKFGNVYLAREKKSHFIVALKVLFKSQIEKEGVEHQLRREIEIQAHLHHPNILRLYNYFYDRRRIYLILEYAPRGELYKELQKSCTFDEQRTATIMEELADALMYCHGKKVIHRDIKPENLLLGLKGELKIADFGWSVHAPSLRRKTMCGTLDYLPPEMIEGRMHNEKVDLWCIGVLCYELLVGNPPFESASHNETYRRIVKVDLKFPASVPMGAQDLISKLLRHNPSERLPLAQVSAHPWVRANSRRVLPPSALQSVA
Tyrosine-protein kinase Fyn, sequence (P06241 whole entry): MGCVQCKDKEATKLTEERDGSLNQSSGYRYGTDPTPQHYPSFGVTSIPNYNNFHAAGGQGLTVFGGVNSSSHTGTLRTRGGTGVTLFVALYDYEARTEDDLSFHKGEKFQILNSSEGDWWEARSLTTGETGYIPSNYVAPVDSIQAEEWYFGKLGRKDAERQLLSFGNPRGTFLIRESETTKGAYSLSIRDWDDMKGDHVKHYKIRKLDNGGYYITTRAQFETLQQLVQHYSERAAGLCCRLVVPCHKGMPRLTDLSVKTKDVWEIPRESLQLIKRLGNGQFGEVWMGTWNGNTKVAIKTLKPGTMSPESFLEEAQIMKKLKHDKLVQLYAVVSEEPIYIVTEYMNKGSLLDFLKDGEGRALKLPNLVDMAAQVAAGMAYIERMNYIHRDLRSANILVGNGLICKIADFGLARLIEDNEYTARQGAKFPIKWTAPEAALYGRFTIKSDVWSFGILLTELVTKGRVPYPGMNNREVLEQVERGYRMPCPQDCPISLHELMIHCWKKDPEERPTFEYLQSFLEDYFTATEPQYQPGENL
Tyrosine-protein kinase Yes, sequence (P07947 whole entry): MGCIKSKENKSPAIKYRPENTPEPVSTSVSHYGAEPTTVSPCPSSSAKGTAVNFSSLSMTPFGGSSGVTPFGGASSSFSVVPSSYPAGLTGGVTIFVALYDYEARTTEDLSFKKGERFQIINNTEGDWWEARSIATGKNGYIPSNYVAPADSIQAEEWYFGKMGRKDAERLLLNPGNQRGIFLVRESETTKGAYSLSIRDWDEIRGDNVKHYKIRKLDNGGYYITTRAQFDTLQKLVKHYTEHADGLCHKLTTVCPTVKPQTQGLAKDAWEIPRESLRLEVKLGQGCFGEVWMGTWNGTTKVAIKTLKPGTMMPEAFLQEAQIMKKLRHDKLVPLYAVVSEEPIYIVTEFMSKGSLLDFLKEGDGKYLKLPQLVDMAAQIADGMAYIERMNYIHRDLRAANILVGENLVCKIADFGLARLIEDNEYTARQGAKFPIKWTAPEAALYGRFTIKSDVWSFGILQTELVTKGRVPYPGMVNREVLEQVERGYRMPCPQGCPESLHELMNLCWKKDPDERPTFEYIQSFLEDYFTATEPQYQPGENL
Description for Aurora kinase A: Inhibition of phosphotransferase activity of recombinant aurora A expressed in HeLa cells

For orientation: pKi means −log10 of the Ki, conventionally taken in molar units. High values mean a small Ki, low ones a large Ki. Consider `CC(=O)Nc1ccc(Sc2nc(Nc3cc(C)n[nH]3)cc(C)c2C#N)cc1`, for which the pKi at Aurora kinase A was 8.28.

Turning to `Cc1cc(Nc2cc(C)c(C#N)c(N[C@H](C)CCCC(C)(C)O)n2)n[nH]1`, the negative logarithm of the Ki (pKi) at Aurora kinase A was 7.18. In addition, in data set [1], the CL amounted to 110 µL/min/mg.

The term Tmax denotes the time from dosing to the highest level. A word on the inhibition in vivo: it is how much of the control response was suppressed. The half-life is the time needed for the level to fall by half in the phase considered. The term Cmax denotes the peak of the concentration-time curve. The pIC50 is the negative decadic logarithm of the IC50, by convention in mol/L. The low end stands for a high IC50, the high end for a low IC50. For the compound `Cc1cc(Nc2cc(C)c(C#N)c(NC(C)CCCC(C)(C)O)n2)n[nH]1.Cl` (racemic), the pKi on Aurora kinase B is 7.00; at Aurora kinase A, 8.92; in data set [3] it was 7.59; in data set [5] it was 7.62; in [8], 7.55. Also, in [2], the time of peak concentration (Tmax) is 1.2 h. In [1], the CL was 70 µL/min/mg. The Activity entry in the data set on Mus musculus is listed as “Non-toxic”. In the data set with HCT-116 [4], the inhibition in vivo at 30 mg/kg was found to be 59%. For the same compound, the concentration at 24 h in data set [6] was determined as 52 nM. Moreover, in [7], the half-life is 3.3 h. For the same compound, in [9], the peak level (Cmax) was 4930 nM. This compound gave a pIC50 in the data set with HCT-116 [10] of 6.94.

Compound `Cc1cc(Nc2cc(C)c(C#N)c(SCCCCCCO)n2)[nH]n1` had a negative logarithm of the Ki (pKi) on Aurora kinase A of 8.07.

`Cc1cc(Nc2cc(-c3ccccc3)c(C#N)c(Sc3ccc(NC(=O)C(C)C)cc3)n2)n[nH]1` showed a pKi at Aurora kinase A of 6.51.

With `CCCCCCSc1nc(Nc2cc(C)n[nH]2)cc(C)c1C#N`, the pKi at Aurora kinase A was 8.42.

In the case of `Cc1cc(Nc2cc(C)c(C#N)c(SCCCCCC(C)(C)O)n2)[nH]n1`, the pKi at Aurora kinase A is 8.01.

The compound `Cc1cc(Nc2cc(C)c(C#N)c(NCCCCCCO)n2)[nH]n1` showed a pKi at Aurora kinase A of 8.35.

Turning to `Cc1cc(Nc2cc(C)c(C#N)c(N[C@@H](C)CCCC(C)(C)O)n2)[nH]n1`, the pKi at Aurora kinase A is 9.23. In data set [1], this compound came in with a CL of 50 µL/min/mg. Besides, the negative-log IC50 (pIC50) in the data set with HCT-116 [10] was 7.28.

Take `Cc1cc(Nc2cc(N3CCN(C)CC3)nc(Sc3ccc(NC(=O)C4CC4)cc3)n2)n[nH]1`: the growth inhibition (GI) with HCT-116 [11] was 68%; with HCT-116 [12] it was 60%.

Take `Cc1cc(Nc2cc(C)c(C#N)c(SCCCCCCN)n2)[nH]n1`: the pKi on Aurora kinase A was 7.55.

On Aurora kinase A, `Cc1cc(Nc2cc(C)c(C#N)c(NCCO)n2)[nH]n1` gave a pKi of 7.70.

Regarding `Cc1cc(Nc2cc(C)c(C#N)c(NCCCCCC(C)(C)O)n2)n[nH]1`, the negative-log Ki (pKi) at Aurora kinase A was 8.64.
